Patent publication US20110218172A1, “COMPOSITION FOR DOWN-REGULATING PRO-INFLAMMATORY MARKERS” (priority 2010, published 2011)

Tests used:
[1] = system: Mycobacterium tuberculli induced inflammatory arthritis in rats (injected paw); assay: Adjuvant-induced developing inflammatory arthritis (prophylactic), injected paw oedema; assay type: in vivo, Wistar rats; conditions: 100 mg/kg oral once daily, day 14, injected paw
Experimental: Wistar rats, 12-14 weeks old, 140-160 g body weight in groups of 6 were employed in the study. All the animals were maintained in plastic cages at 22±2° C. with 12 h light/dark cycle and free access to pellet food and water. Test materials were administered orally once a day for the duration of the experiment. In all the experiments, a control group was maintained (vehicle administered) whilst the other group received a standard drug acetylsalicylic acid (ASA) administered once daily for comparison and authenticity/credibility of the test. The entire study was carried out after approval from Institutional Animal Ethics Committee and all the animals used in experimental work received humane care. The mean and standard error (S.E.) of the mean for each group was calculated and the results were expressed as percent inhibition compared to control group. The significance was determined statistically by applying Student's t-test.
Adjuvant arthritis was induced by the sub-plantar injection of 0.05 ml freshly prepared suspension (5.0 mg/ml) of steam killed Mycobacterium tuberculosis in liquid paraffin [Newbould BB. Chemotherapy of arthritis induced in rats by mycobacterial adjuvant. Br J Pharmacol 1963; 21:127-36]. The volume of the injected paws was quantitated before and on day 14th after the adjuvant injection and was measured by a volume differential meter model LE 7500N, Panlab, Spain.

[2] = system: intracellular TNF-α in murine neutrophils; assay: Intracellular in vitro TNF-α estimation in LPS-stimulated murine neutrophils (flow cytometry); assay type: cell-based; conditions: 100 μg/ml, 3 h
Experimental: Cells were stimulated with LPS and incubated with test materials at graded concentrations (μg/ml) for 3 hours, in a CO2 incubator. The permeabilising solution was added to the cells and then these were incubated for 10 min. The cells were then labeled with conjugated anti-mouse TNF-α monoclonal antibody and further incubation of 30 min. duration was carried out in dark. After washing with Phosphate buffered saline, the samples were acquired directly on BD-Cantoll Flowcytometer (Beckton-Dickinson Biosciences, CA, USA). A fluorescence trigger was set on the FL1 parameter of the gated neutrophils populations (10,000 events) and fluorescence compensation, data analysis and data presentation was performed using Cell Quest Pro software. [Clara, B., R. C. Arancha, G. M. Andre's, P. Atanasio, A. Julia, and O. Alberto. 2003. A new method for detecting TNF-α-secreting cells using direct immunofluorescence surface membrane stainings. J. Immuno. Methods 264:77-87.][Khurshid A. Bhat, Bhahwal A. Shah, Kuldeep K. Gupta, Anjali Pandey, Sarang Bani, Subhash C. Taneja. Semi-synthetic analogs of pinitol as potential inhibitors of TNF-a cytokine expression in human neutrophils. Bioorganic & Medicinal Chemistry Letters 19 2009, 1939-1943].

CC(=O)Oc1ccccc1C(=O)O [ASA, Acetylsalicylic acid]
Oedema Mean ± S.E. [1]: 1.82 ± 0.17 mm
inhibition at 100 mg/kg ([1]; Mycobacterium, 336 h, read-out: Percentage Activity Against Arthritic Control (↓ percent inhibition)): 37%

COc1ccc(C2CNC(=O)C2)cc1OC1CCCC1 (stereo not shown) [Rolipram]
% TNF-alpha expression against LPS control (↓ decrease) [2]: 71.48↓ %
intracellular TNF-α expression Mean ± S.E ([2]; n=3): 0.71 ± 0.04
